Results taken from US10072011B2, “Substituted bridged urea analogs as sirtuin modulators” (GlaxoSmithKline Intellectual Property (No.2) Limited, priority 2014, dated 2018).

Molecular target: T1, SIRT1 (Homo sapiens, UniProt Q96EB6)
T1 sequence (Q96EB6 1-747): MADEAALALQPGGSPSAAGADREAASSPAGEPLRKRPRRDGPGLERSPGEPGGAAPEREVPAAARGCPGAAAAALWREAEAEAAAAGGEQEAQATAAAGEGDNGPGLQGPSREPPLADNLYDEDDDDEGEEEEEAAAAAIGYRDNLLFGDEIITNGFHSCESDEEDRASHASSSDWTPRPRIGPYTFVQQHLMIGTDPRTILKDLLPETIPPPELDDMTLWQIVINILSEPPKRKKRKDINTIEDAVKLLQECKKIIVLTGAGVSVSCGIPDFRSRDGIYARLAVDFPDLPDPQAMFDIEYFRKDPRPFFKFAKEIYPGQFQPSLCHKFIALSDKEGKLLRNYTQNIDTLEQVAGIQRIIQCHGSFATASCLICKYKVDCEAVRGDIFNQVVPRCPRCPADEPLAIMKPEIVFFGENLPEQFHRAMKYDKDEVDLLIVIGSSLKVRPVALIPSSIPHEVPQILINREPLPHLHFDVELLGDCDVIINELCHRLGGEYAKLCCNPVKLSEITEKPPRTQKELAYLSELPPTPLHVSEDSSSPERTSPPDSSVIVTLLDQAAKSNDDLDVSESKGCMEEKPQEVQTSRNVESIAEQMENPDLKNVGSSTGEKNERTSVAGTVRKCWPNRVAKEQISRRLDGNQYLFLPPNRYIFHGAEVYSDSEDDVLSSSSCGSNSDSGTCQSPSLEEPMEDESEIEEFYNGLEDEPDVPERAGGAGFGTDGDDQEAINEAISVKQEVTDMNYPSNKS
Assay: Trp mass spectrometry assay of SIRT1 activation (Ac-R-H-K-K(Ac)-W-NH2 peptide)
Format: biochemical
Conditions: Trp peptide 0.5 μM, 120 μM βNAD+, 10 nM SIRT1, 25 min at 25° C.; for Emax: 25 min, read-out: TRP MAX RESP (percent maximum fold activation)
How it was run: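 N-terminal His-tagged human SIRT1, expressed in BL21(DE3) and purified, was incubated 25 min with an acetylated Trp peptide and NAD plus test compound at varying concentrations, then quenched with formic acid. OAADPR or deacetylated peptide was quantified by mass spectrometry versus compound-free control; EC1.5 is the concentration giving 50% activity increase, with percent maximum activation.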

Row | Structure (SMILES) | Emax (relative to control (100%)) [%] | TRP Activity (EC1.5, concentration of test compound that results in 150% activation of SIRT1) | TRP MAX RESP (percent maximum fold activation) (relative to control (100%))
1 | O=C(NCC(F)(F)F)c1ccc2c(n1)N(C(=O)Nc1ccc(F)cn1)[C@H]1CCN2C1 [Example 70, (4S)—N5-(5-fluoropyridin-2-yl)-N7-(2,2,2-trifluoroethyl)-3,4-dihydro-1,4-methanopyrido[2,3-b][1,4]diazepine-5,7(2H)-dicarboxamide] | > 150 | A (EC1.5<1 μM) | 
2 | O=C(NCC(F)(F)F)c1ccc2c(n1)N(C(=O)Nc1cnc(OC[C@H](O)CO)cn1)[C@H]1CCN2C1 [Example 95, (4S)—N5-(5-((R)-2,3-dihydroxypropoxy)pyrazin-2-yl)-N7-(2,2,2-trifluoroethyl)-3,4-dihydro-1,4-methanopyrido[2,3-b][1,4]diazepine-5,7(2H)-dicarboxamide] | > 150 | A (EC1.5<1 μM) | 
3 | O=C(NC1CC1)c1ccc2c(n1)N(C(=O)Nc1cc(-c3cnco3)ccn1)[C@H]1CCN2C1 [Example 78, (4S)—N7-cyclopropyl-N5-(4-(oxazol-5-yl)pyridin-2-yl)-3,4-dihydro-1,4-methanopyrido[2,3-b][1,4]diazepine-5,7(2H)-dicarboxamide] | > 150 | A (EC1.5<1 μM) | 
4 | Cc1nn(C)cc1-c1ccnc(NC(=O)N2c3nc(C(=O)N[C@H](C)C(F)(F)F)ccc3N3CC[C@H]2C3)c1 [Example 84, (4S)—N5-(4-(1,3-dimethyl-1H-pyrazol-4-yl)pyridin-2-yl)-N7-((R)-1,1,1-trifluoropropan-2-yl)-3,4-dihydro-1,4-methanopyrido[2,3-b][1,4]diazepine-5,7(2H)-dicarboxamide] | > 150 | A (EC1.5<1 μM) | 
5 | Cc1ccc2c(NC(=O)N3c4nc(C(=O)N[C@H](C)C(F)(F)F)ccc4N4CC[C@H]3C4)n[nH]c2n1 [Example 76, (4S)—N5-(6-methyl-1H-pyrazolo[3,4-b]pyridin-3-yl)-N7-((R)-1,1,1-trifluoropropan-2-yl)-3,4-dihydro-1,4-methanopyrido[2,3-b][1,4]diazepine-5,7(2H)-dicarboxamide] | > 150 | A (EC1.5<1 μM) | 
6 | O=C(NCC(F)(F)F)c1ccc2c(n1)N(C(=O)Nc1cc3c(cn1)OCCC3)[C@H]1CCN2C1 [Example 133, (4S)—N5-(3,4-dihydro-2H-pyrano[2,3-c]pyridin-6-yl)-N7-(2,2,2-trifluoroethyl)-3,4-dihydro-1,4-methanopyrido[2,3-b][1,4]diazepine-5,7(2H)-dicarboxamide] | > 150 | A (EC1.5<1 μM) | 
7 | O=C(NCC1CC1)c1ccc2c(n1)N(C(=O)Nc1cc3c(cn1)OCCC3)[C@H]1CCN2C1 [Example 145, (4S)—N7-(cyclopropylmethyl)-N5-(3,4-dihydro-2H-pyrano[2,3-c]pyridin-6-yl)-3,4-dihydro-1,4-methanopyrido[2,3-b][1,4]diazepine-5,7(2H)-dicarboxamide] | > 150 | A (EC1.5<1 μM) | 
8 | CC(CO)NC(=O)c1ccc2c(n1)N(C(=O)Nc1ccccn1)[C@H]1CCN2C1 (stereo partly drawn) [Example 10, (4S)—N-7-(1-hydroxypropan-2-yl)-N-5-(pyridin-2-yl)-3,4-dihydro-1,4-methanopyrido [2,3-b] [1, 4] diazepine-5, 7(2H)-dicarboxamide] | > 150 | B (EC1.5 1-25 μM) | 
9 | CC(C)[C@@H](NC(=O)c1ccc2c(n1)N(C(=O)Nc1ccccn1)[C@H]1CCN2C1)C(F)(F)F [Example 29, (4S)—N5-(pyridin-2-yl)-N7-((R)-1,1,1-trifluoro-3-methylbutan-2-yl)-3,4-dihydro-1,4-methanopyrido[2,3-b][1,4]diazepine-5,7(2H)-dicarboxamide] | > 150 | A (EC1.5<1 μM) | 
10 | O=C(NC[C@H](O)C(F)(F)F)c1ccc2c(n1)N(C(=O)Nc1ccccn1)[C@H]1CCN2C1 [Example 52, (4S)—N5-(pyridin-2-yl)-N7-((S)-3,3,3-trifluoro-2-hydroxypropyl)-3,4-dihydro-1,4-methanopyrido[2,3-b][1,4]diazepine-5,7(2H)-dicarboxamide] | > 150 | A (EC1.5<1 μM) | 

Further lines, results first:

Row | Emax (relative to control (100%)) [%] | TRP Activity (EC1.5, concentration of test compound that results in 150% activation of SIRT1) | TRP MAX RESP (percent maximum fold activation) (relative to control (100%)) | Structure (SMILES)
11 | > 150 | A (EC1.5<1 μM) |  | Cc1ncc(-c2ccnc(NC(=O)N3c4nc(C(=O)NCC(F)(F)F)ccc4N4CC[C@H]3C4)n2)o1 [Example 157, (4S)—N5-(4-(2-methyloxazol-5-yl)pyrimidin-2-yl)-N7-(2,2,2-trifluoroethyl)-3,4-dihydro-1,4-methanopyrido[2,3-b][1,4]diazepine-5,7(2H)-dicarboxamide]
12 | > 150 | B (EC1.5 1-25 μM) |  | CC(C)(O)CNC(=O)c1ccc2c(n1)N(C(=O)Nc1ccccn1)[C@H]1CCN2C1 [Example 202, (4S)—N7-(2-hydroxy-2-methylpropyl)-N5-(pyridin-2-yl)-3,4-dihydro-1,4-methanopyrido[2,3-b][1, 4] diazepine-5,7(2H)-dicarboxamide]
13 | > 150 | A (EC1.5<1 μM) |  | C[C@@H](NC(=O)c1ccc2c(n1)N(C(=O)Nc1cc(OC[C@H](O)CO)ncn1)[C@H]1CCN2C1)C(F)(F)F [Example 189, (4S)—N5-(6-((R)-2,3-dihydroxypropoxy)pyrimidin-4-yl)-N7-((R)-1,1,1-trifluoropropan-2-yl)-3,4-dihydro-1,4-methanopyrido[2,3-b][1,4]diazepine-5,7(2H)-dicarboxamide]
14 | > 150 | B (EC1.5 1-25 μM) |  | C[C@H](NC(=O)c1ccc2c(n1)N(C(=O)Nc1ccccn1)[C@H]1CCN2C1)C(F)(F)F [Example 207, (4S)—N5-(pyridin-2-yl)-N7-((S)-1,1,1-trifluoropropan-2-yl)-3,4-dihydro-1,4-methanopyrido[2,3-b][1,4]diazepine-5,7(2H)-dicarboxamide]
15 | > 150 | B (EC1.5 1-25 μM) |  | O=C(NCc1nccs1)c1ccc2c(n1)N(C(=O)Nc1cc(OC[C@H](O)CO)ccn1)[C@H]1CCN2C1 [Example 195, (4S)—N5-(4-((R)-2,3-dihydroxypropoxy)pyridin-2-yl)-N7-(thiazol-2-ylmethyl)-3,4-dihydro-1,4-methanopyrido[2,3-b][1,4]diazepine-5,7(2H)-dicarboxamide]
16 | > 150 | A (EC1.5<1 μM) |  | CNC(=O)c1ccc(NC(=O)N2c3nc(C(=O)NCC(F)(F)F)ccc3N3CC[C@H]2C3)nc1 [Example 168, (4S)—N5-(5-(methylcarbamoyl)pyridin-2-yl)-N7-(2,2,2-trifluoroethyl)-3,4-dihydro-1,4-methanopyrido[2,3-b][1,4]diazepine-5,7(2H)-dicarboxamide]
17 | > 150 | A (EC1.5<1 μM) |  | O=C(NC1CC1)c1ccc2c(n1)N(C(=O)Nc1cc3c(cn1)OCCC3)[C@H]1CCN2C1 [Example 160, (4S)—N7-cyclopropyl-N5-(3,4-dihydro-2H-pyrano[2,3-c]pyridin-6-yl)-3,4-dihydro-1,4-methanopyrido[2,3-b][1,4]diazepine-5,7(2H)-dicarboxamide]
18 | > 150 | B (EC1.5 1-25 μM) |  | COc1ccnc(NC(=O)N2c3nc(C(=O)N[C@@H]4CC4(F)F)ccc3N3CC[C@H]2C3)c1 (single isomer, unassigned) [Example 274]
19 |  | A (EC1.5<1 μM) | B (Fold Activation<150%) | COc1cc(NC(=O)N2c3nc(C(=O)NC4CC4(F)F)ccc3N3CC[C@H]2C3)ncn1 (single isomer, unassigned) [Example 303]
20 | > 150 | A (EC1.5<1 μM) |  | C[C@@H](NC(=O)c1ccc2c(n1)N(C(=O)Nc1cc(OC[C@@H](O)CO)ncn1)[C@H]1CCN2C1)C(F)(F)F [Example 162, (4S)—N5-(6-((S)-2,3-dihydroxypropoxy)pyrimidin-4-yl)-N7-((R)-1,1,1-trifluoropropan-2-yl)-3,4-dihydro-1,4-methanopyrido[2,3-b][1,4]diazepine-5,7(2H)-dicarboxamide]
